In US20030153808A1, “Implantation rate using ff-mas” (priority 2000, published 2003):

Legend:
adult, cycling rat = assay: Embryo implantation in the cycling rat after subcutaneous treatment; type: in vivo; conditions: 20 mg/kg s.c. once daily d1-d8, mating d7, uteri checked d16, female Wistar rats, 5 animals/group; vehicle 10 ± 4
Description: A total of 15 sexually mature female Wistar rats with a body weight of 200-220 g and a 4-day cycle were used. The animals were divided in one control group (group 1) and two treatment groups (group 2-3) consisting of 5 animals/group, respectively.
Starting in metestrus (d1) animals were treated for eight days (d1-d8), once daily, subcutaneously with the test compounds (treatment groups) or vehicle (control group), respectively. At day 7, at proestrus, animals were mated. The success of mating was checked by the presence of sperms in the vagina at d8. At d16 animals were sacrificed. Uteri were removed and checked for the presence of implantation sides. In each animal the number of implantation sides were determined.
Control group 1 received vehicle alone [(ethanol/arachisoil, 1+9 (v/v)].
Group 2 received 20 mg/kg FF-MAS, prepared in an ethanol/arachisoil vehicle.
Group 2 received 20 mg/kg FF-MAS-succinate, prepared in an ethanol/arachisoil vehicle.

mouse oocytes [1] = assay: Implantation rate after IVF: mouse oocyte cultivation with FF-MAS, in vitro-fertilization, tubal retransfer to foster mothers; type: cell-based
Description: Oocytes are obtained by puncture using a fine needle from the ovaries of mice primed with PMSG (pregnant mare serum gonadotrophin). The oocytes are cultivated for approx. 20 hours in a defined hypoxanthine-containing culture medium (Hx medium, see above) with FF-MAS (10 μM) (37° C.). The control oocytes are cultivated in defined culture medium without FF-MAS for the same period of time. Both the FF-MAS-oocytes and the control oocytes have begun meiosis maturation at the end of the culture period. All oocytes punctured on one day (from various mice) are pooled and distributed over the two study groups.
The oocytes cultivated in the mouse oocyte assay are further processed in this experiment. They are washed briefly 3× in a defined medium not containing FF-MAS and subsequently transferred into an IVF medium not containing FF-MAS. Then a defined number of capacitated sperms (obtained from the epididymides of a male mouse) is added and the oocytes are incubated with the sperms for approx. 4 hours in an incubator at 37° C. Following incubation the number of inseminated oocytes is counted.
1 day before the retransfer female recipient mice (foster mothers) in pre-estrus are mated with vasectomized males in order to trigger pseudogestation. One day later a vaginal check is performed. Animals with positive, sperm-free vaginal prop (successful mating) enter the study. This day is day 0 of gestation (=day 0 after the sterile copulation). Approx 10-15 inseminated oocytes are transferred into one tube (right) to the foster mothers on day 0 after the sterile copulation under anesthetization. The contralateral tube remains unused (check for pseudogestation). Only inseminated oocytes from the IVF experiment are used.
Retransfer is repeated until approx. 20 evaluable litters (with viable fetuses) have been obtained in all study groups (10 μM FF-MAS and one untreated control group).
The foster mothers are killed on day 17 of gestation. Uteri are removed. The number of viable and dead fetuses, the number of foster mothers, the number of pregnant foster mothers and the number of pregnant foster mothers with viable fetuses and with total fetal death, respectively, are counted.

mouse oocytes [2] = conditions: added to the culture medium; Hegele-Hartung et al. 1998; cited from earlier work
human oocytes = conditions: Grøndahl et al. 1999; cited from earlier work

Row | Compound | Number of implantation sides [x ± sd] d16 (adult, cycling rat) | Number of pregnant foster mothers [n] (mouse oocytes [1]; 10 μM FF-MAS in culture medium, 69 foster mothers, control 43 of 153) | Number of pregnant foster mothers [%] (mouse oocytes [1]; 10 μM FF-MAS in culture medium, % of foster mothers, control 28) | Number of pregnant foster mothers with viable fetuses [%] (mouse oocytes [1]; 10 μM FF-MAS in culture medium, % of pregnant foster mothers, control 47) | Numbers of pregnant foster mothers with total fetal death [%] (mouse oocytes [1]; 10 μM FF-MAS in culture medium, % of pregnant foster mothers, control 54) | Number of pregnant foster mothers with viable fetuses [n] (mouse oocytes [1]; 10 μM FF-MAS in culture medium, control 20) | Numbers of pregnant foster mothers with total fetal death [n] (mouse oocytes [1]; 10 μM FF-MAS in culture medium, control 23) | Number of viable fetuses [n] (mouse oocytes [1]; 10 μM FF-MAS in oocyte culture medium approx. 20 h, IVF, retransfer, foster mothers killed day 17 of gestation, 69 foster mothers, control 45 of 153) | fertilization rate (mouse oocytes [2]) | nuclear and cytoplasmic maturation (human oocytes)
1 | CC(C)=CCCC(C)C1CC=C2C3=C(CCC21C)C1(C)CCC(OC(=O)CCC(=O)O)C(C)(C)C1CC3 (centres unmarked) [FF-MAS-succinate] | 12 ± 2 | – | – | – | – | – | – | – | – | –
2 | CC(C)=CCC[C@@H](C)[C@H]1CC=C2C3=C(CC[C@@]21C)[C@@]1(C)CC[C@H](O)C(C)(C)[C@@H]1CC3 [FF-MAS, 4,4-dimethyl-5a-cholesta-8,14,24-triene-3β-ol] | 15 ± 3 | 27 n | 40% | 78% | 22% | 21 n | 6 n | 42 n | increase the fertilization rate | improvement in nuclear and cytoplasmic maturation
